According to patent publication US20230312587A1, “PTERIDINONE COMPOUNDS AND USES THEREOF” (Vertex Pharmaceutical Incorporated, priority 2018, published 2023):

tested on: β-catenin-TCF-mediated reporter transcription activity in Colo 205 cells; test: Colo 205 reporter assay (TCF/LEF luciferase); format: cell-based; settings: Colo 205 TCF/LEF luciferase reporter, five hours after addition of compound; read-out: TCF reporter Colo205 IC50
Method in brief: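 Luciferase signal from a TCF/LEF-driven reporter, stably integrated in Colo 205 colon cancer cells, was measured 5 h after compound addition.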

Compound	IC50 [nM]
(S)-7-((S)-1-(tert-butoxy)ethyl)-4,8-dimethyl-2-(((1-(3,4,5-trifluorobenzyl)-1H-pyrazol-4-yl)methyl)amino)-7,8-dihydropteridin-6(5H)-one [Compound 747]	300 to 1000

same assay, conditions: Homo sapiens, COLO 205, 5 h, Colo 205 TCF/LEF luciferase reporter, five hours after addition of compound; read-out: TCF reporter Colo205 IC50

Compound	IC50 [nM]
Cc1nc(N[C@H]2C[C@@H](Nc3ccc(C(F)(F)F)nc3)C2)nc2c1NC(=O)[C@H](C(C)C)N2C [Compound 586, (S)-7-isopropyl-4,8-dimethyl-2-((cis-3-((6-(trifluoromethyl)pyridin-3-yl)amino)cyclobutyl)amino)-7,8-dihydropteridin-6(5H)-one]	< 300
Cc1nc(N[C@H]2C[C@H](Oc3cc(F)c(F)c(F)c3)C2)nc2c1N(CCF)C(=O)[C@H](C)N2C [Compound 381, (7S)-5-(2-fluoroethyl)-4,7,8-trimethyl-2-((trans-3-(3,4,5-trifluorophenoxy)-cyclobutyl)-amino)-7,8-dihydropteridin-6(5H)-one]	300 to 1000
Cc1nc(NCc2cnn(Cc3ccnc(N(C)C)c3)c2)nc2c1NC(=O)[C@H](C(C)C)N2C [Compound 448, (S)-2-(((1-((2-(dimethylamino)pyridin-4-yl)methyl)-1H-pyrazol-4-yl)methyl)amino)-7-isopropyl-4,8-dimethyl-7,8-dihydropteridin-6(5H)-one]	< 300
Cc1nc(N[C@H]2C[C@H](OCc3cc(F)c(F)c(F)c3)C2)nc2c1N(C)C(=O)[C@H](C)N2C [Compound 255, (7S)-4,5,7,8-tetramethyl-2-((trans-3-((3,4,5-trifluorobenzyl)oxy)cyclobutyl)amino)-7,8-dihydropteridin-6(5H)-one]	< 300
Cc1cc(OC(C)(C)C)ncc1Cn1cc(CNc2nc(C)c3c(n2)N(C)[C@@H](C)C(=O)N3)cn1 [Compound 167, (7S)-2-(((1-((6-(tert-butoxy)-4-methylpyridin-3-yl)methyl)-1H-pyrazol-4-yl)methyl)amino)-4,7,8-trimethyl-7,8-dihydropteridin-6(5H)-one]	< 300
COc1ccc(OC[C@H]2C[C@@H](Nc3nc(C)c4c(n3)N(C)[C@@H](C(C)C)C(=O)N4)C2)cn1 [Compound 573, (S)-7-isopropyl-2-((cis-3-(((6-methoxypyridin-3-yl)oxy)methyl)cyclobutyl)amino)-4,8-dimethyl-7,8-dihydropteridin-6(5H)-one]	< 300
COC1(C2C(=O)Nc3c(C)nc(NC4CN(C(=O)c5cc(F)c(F)c(F)c5)C4)nc3N2C)CCC1 (stereo not shown) [Compound 675, 7-(1-methoxycyclobutyl)-4,8-dimethyl-2-((1-(3,4,5-trifluorobenzoyl)azetidin-3-yl)amino)-7,8-dihydropteridin-6(5H)-one]	300 to 1000
Cc1nc(N[C@H]2C[C@@H](Nc3ncc(C#N)cc3F)C2)nc2c1NC(=O)[C@H](C(C)C)N2C [Compound 715, 5-fluoro-6-((cis-3-(((S)-7-isopropyl-4,8-dimethyl-6-oxo-5,6,7,8-tetrahydropteridin-2-yl)amino)cyclobutyl)amino)nicotinonitrile]	1000 to 5000
CN1C(=O)C(C)(C)Nc2nc(NCc3cnn(Cc4ccc(F)cc4)c3)ncc21 [Compound 225, 2-(((1-(4-Fluorobenzyl)-1H-pyrazol-4-yl)methyl)amino)-5,7,7-trimethyl-7,8-dihydropteridin-6(5H)-one]	≥ 5000
Cc1nc(N[C@H]2C[C@@H](COc3ccc(Cl)nc3)C2)nc2c1NC(=O)[C@H](C(C)C)N2C [Compound 570, (S)-2-((cis-3-(((6-chloropyridin-3-yl)oxy)methyl)cyclobutyl)amino)-7-isopropyl-4,8-dimethyl-7,8-dihydropteridin-6(5H)-one]	< 300
CC[C@H]1C(=O)Nc2c(C)nc(NCc3cnn(Cc4cnc(Cl)c(F)c4)c3)nc2N1C [Compound 426, (7S)-2-(((1-((6-chloro-5-fluoropyridin-3-yl)methyl)-1H-pyrazol-4-yl)methyl)amino)-7-ethyl-4,8-dimethyl-7,8-dihydropteridin-6(5H)-one]	< 300
Cc1cc(F)ncc1Cn1cc(CNc2nc(C)c3c(n2)N(C)[C@@H](C)C(=O)N3C)cn1 [Compound 205, (7S)-2-(((1-((6-fluoro-4-methylpyridin-3-yl)methyl)-1H-pyrazol-4-yl)methyl)amino)-4,5,7,8-tetramethyl-7,8-dihydropteridin-6(5H)-one]	300 to 1000
C[C@H]1C(=O)Nc2cnc(NCc3cnn(Cc4cccc(C(F)(F)F)c4)c3)nc2N1C [Compound 45, (7S)-7,8-dimethyl-2-(((1-(3-(trifluoromethyl)benzyl)-1H-pyrazol-4-yl)methyl)amino)-7,8-dihydropteridin-6(5H)-one]	< 300
Cc1nc(N[C@H]2C[C@H](Oc3cncc(C(F)(F)F)c3)C2)nc2c1N(C)C(=O)[C@H](C)N2C [Compound 314, (7S)-4,5,7,8-tetramethyl-2-((trans-3-((5-(trifluoromethyl)pyridin-3-yl)oxy)cyclobutyl)amino)-7,8-dihydropteridin-6(5H)-one]	300 to 1000

Continued, values first:

IC50 [nM]	Compound
300 to 1000	C[C@H]1C(=O)N(C)c2cnc(NCc3cnn(Cc4ccc(F)cc4)c3)nc2N1C [Compound 27, (7S)-2-(((1-(4-fluorobenzyl)-1H-pyrazol-4-yl)methyl)amino)-5,7,8-trimethyl-7,8-dihydropteridin-6(5H)-one]
< 300	Cc1nc(NCc2ccc(OC3CCN(c4ccc(F)cc4)C3)nc2)nc2c1NC(=O)[C@H](C)N2C (stereo partly drawn) [Compound 169, (7S)-2-(((6-((1-(4-fluorophenyl)pyrrolidin-3-yl)oxy)pyridin-3-yl)methyl)amino)-4,7,8-trimethyl-7,8-dihydropteridin-6(5H)-one]
300 to 1000	C[C@H]1C(=O)Nc2cnc(N[C@H]3C[C@@H](COCc4ccc(F)cc4)C3)nc2N1C [Compound 288, (7S)-2-((cis-3-(((4-fluorobenzyl)oxy)methyl)cyclobutyl)amino)-7,8-dimethyl-7,8-dihydropteridin-6(5H)-one]
≥ 5000	Cc1nc(N[C@@H]2COC[C@H]2Oc2ccc(F)cc2)nc2c1NC(=O)[C@H](C)N2C (mixture of isomers) [Compound 297, (7S)-2-((trans-4-(4-fluorophenoxy)tetrahydrofuran-3-yl)amino)-4,7,8-trimethyl-7,8-dihydropteridin-6(5H)-one]
≥ 5000	Cc1nc(NCc2cnn(Cc3ccnc(O)c3)c2)nc2c1NC(=O)[C@H](C)N2C [Compound 202, (7S)-2-(((1-((2-hydroxypyridin-4-yl)methyl)-1H-pyrazol-4-yl)methyl)amino)-4,7,8-trimethyl-7,8-dihydropteridin-6(5H)-one]
≥ 5000	Cc1nc(N[C@@H]2CCc3c2cnn3Cc2ccc(C(F)(F)F)nc2)nc2c1NC(=O)[C@H](C)N2C [Compound 625, (7S)-4,7,8-trimethyl-2-(((R)-1-((6-(trifluoromethyl)pyridin-3-yl)methyl)-1,4,5,6-tetrahydrocyclopenta[c]pyrazol-4-yl)amino)-7,8-dihydropteridin-6(5H)-one]
< 300	COc1ccc(Cn2cc(CNc3nc(C)c4c(n3)N(C)[C@@H](C)C(=O)N4)cn2)cc1F [Compound 146, (7S)-2-(((1-(3-fluoro-4-methoxybenzyl)-1H-pyrazol-4-yl)methyl)amino)-4,7,8-trimethyl-7,8-dihydropteridin-6(5H)-one]
< 300	Cc1nc(NC2CN(Cc3ccc(C(F)(F)F)cc3)C2)nc2c1NC(=O)[C@H](C(C)C)N2C [Compound 650, (S)-7-isopropyl-4,8-dimethyl-2-((1-(4-(trifluoromethyl)benzyl)azetidin-3-yl)amino)-7,8-dihydropteridin-6(5H)-one]
≥ 5000	Cc1nc(NCc2ccnc(N3CCCCC3)c2)nc2c1NC(=O)[C@H](C)N2C [Compound 60, (S)-4,7,8-trimethyl-2-(((2-(piperidin-1-yl)pyridin-4-yl)methyl)amino)-7,8-dihydropteridin-6(5H)-one]
300 to 1000	Cc1nc(N[C@H]2C[C@H](Sc3ccc(C(F)(F)F)cc3)C2)nc2c1NC(=O)[C@H](C)N2C [Compound 317, (7S)-4,7,8-trimethyl-2-((trans-3-((4-(trifluoromethyl)phenyl)thio)-cyclobutyl)amino)-7,8-dihydropteridin-6(5H)-one]
≥ 5000	Cc1nc(N[C@H]2CCN(Cc3ccc(F)cc3)C2)nc2c1NC(=O)[C@H](C)N2C [Compound 374, (7S)-2-(((S)-1-(4-fluorobenzyl)pyrrolidin-3-yl)amino)-4,7,8-trimethyl-7,8-dihydropteridin-6(5H)-one]
≥ 5000	Cc1nc(N[C@H]2C[C@H](NC(=O)Nc3ccc(Cl)nc3)C2)nc2c1NC(=O)[C@H](C)N2C [Compound 463, 1-(6-chloropyridin-3-yl)-3-(trans-3-(((S)-4,7,8-trimethyl-6-oxo-5,6,7,8-tetrahydropteridin-2-yl)amino)cyclobutyl)urea]
1000 to 5000	Cc1nc(N[C@H]2C[C@H](Oc3cncc(F)c3)C2)nc2c1NC(=O)[C@H](C)N2C [Compound 262, (7S)-2-((trans-3-((5-fluoropyridin-3-yl)oxy)cyclobutyl)amino)-4,7,8-trimethyl-7,8-dihydropteridin-6(5H)-one]

same assay, conditions: Homo sapiens, COLO 205, 5 h, Colo 205 cells with stably transfected TCF/LEF luciferase reporter; five hours after addition of compound; read-out: TCF reporter Colo205

IC50 [nM]	Compound
≥ 5000	Cc1nc(N(Cc2cnn(Cc3ccc(C(F)(F)F)nc3)c2)C(=O)[C@@H](N)C(C)C)nc2c1NC(=O)[C@H](C)N2C [Compound 402, (S)-2-amino-3-methyl-N-((1-((6-(trifluoromethyl)pyridin-3-yl)methyl)-1H-pyrazol-4-yl)methyl)-N-((S)-4,7,8-trimethyl-6-oxo-5,6,7,8-tetrahydropteridin-2-yl)butanamide]

same assay, conditions: Homo sapiens, COLO 205, 5 h, R-isomer at C2 (corresponding to C2 S-isomer); Colo 205 TCF/LEF luciferase reporter, 5 h; read-out: TCF reporter Colo205 IC50

IC50 [nM]	Compound
1000 to 5000	Cc1nc(NCc2cnn(Cc3ccc(OC(F)F)nc3)c2)nc2c1NC(=O)[C@@H](C(C)C)N2C [Compound I-1642]
≥ 5000	COCC[C@@H]1C(=O)Nc2c(C)nc(NCc3cnn(Cc4cc(C(F)(F)F)nn4C)c3)nc2N1C [Compound I-1648]
